Source: paper PMC10303271, “Synthesis and Receptor Binding Studies of α5 GABAAR Selective Novel Imidazodiazepines Targeted for Psychiatric and Cognitive Disorders” (Molecules, 2023)

How the values were obtained:
[1] = target: T1, 5-HT3 (Homo sapiens, UniProt P46098); experiment: PDSP primary binding 5-HT3; conditions: 1.5 h; primary binding, 10,000 nM; last figure of the line = mean of the 4 before it; read-out: 5-HT3, PDSP raw data, mean
T1 construct: purchased NIMH Psychoactive Drug Screening Program (PDSP)
T1 sequence (P46098 24-478): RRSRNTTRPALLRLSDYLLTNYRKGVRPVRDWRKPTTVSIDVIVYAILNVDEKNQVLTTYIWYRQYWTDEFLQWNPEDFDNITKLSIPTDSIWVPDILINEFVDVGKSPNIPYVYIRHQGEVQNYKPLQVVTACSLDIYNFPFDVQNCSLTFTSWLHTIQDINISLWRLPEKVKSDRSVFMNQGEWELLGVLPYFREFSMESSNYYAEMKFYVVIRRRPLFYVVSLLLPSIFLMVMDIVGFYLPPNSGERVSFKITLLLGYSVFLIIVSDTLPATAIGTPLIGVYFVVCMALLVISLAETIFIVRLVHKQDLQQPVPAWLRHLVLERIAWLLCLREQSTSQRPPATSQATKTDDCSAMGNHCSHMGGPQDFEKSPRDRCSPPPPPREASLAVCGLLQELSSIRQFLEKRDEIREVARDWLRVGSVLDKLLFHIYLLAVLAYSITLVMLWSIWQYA
Method: (§1) To determine if any off-target receptor-binding effects are present, all the novel ligands were sent to the National Institute of Mental Health (NIMH), Psychoactive Drug Screening Program (PDSP). The ligands were screened over a panel of 47 receptors, ion channels, and transporters to determine any other possible interactions with […]. The hERG-binding was also determined. […] No binding of the test compounds to calcium channels was observed. […] It is necessary to screen the compounds for hERG-binding during the early process of drug discovery. The unintentional binding of many drugs to hERG can cause blockade of hERG K+ channels in the heart, which can cause many side effects including cardiac arrhythmias and sudden death. […] All of the α5 imidazodiazepines were tested for hERG-binding.
(§2) The NIMH PDSP assay protocol book [https://kidbdev.med.unc.edu/databases/PDSP%20Protocols%20II%202013-03-28.pdf accessed on 23 April 2023]. describes the protocols for primary and secondary radio-ligand binding assays. These assays were carried out in a final volume of 125 µL per well in the appropriate binding buffer.
(§3) The binding of a ligand to a receptor, ion channel, or transporter was determined in the […] of 10 µM of the appropriate reference compound. […] Plates were incubated in the dark for 90 min at rt, and the reactions were stopped by vacuum filtration onto 0.3% polyethyleneimine (PEI) soaked 96-well filter mats using a 96-well Filtermateharvester. This was followed by three washes with cold PBS buffer. Radioactivity was then counted on a Microbeta counter. Nonlinear regression was used to analyze the data with N = 6 replicates.

[2] = target: T2, 5-HT4 (Homo sapiens, UniProt Q13639); experiment: PDSP primary binding 5-HT4; conditions: 1.5 h; primary binding, 10,000 nM; last figure of the line = mean of the 4 before it; read-out: 5-HT4, PDSP raw data, mean
T2 construct: purchased NIMH Psychoactive Drug Screening Program (PDSP)
Method: as §1, §2, §3

[3] = target: T3, D4 (Homo sapiens, UniProt P21917); experiment: PDSP primary binding D4; conditions: 1.5 h; primary binding, 10,000 nM; last figure of the line = mean of the 4 before it; read-out: D4, PDSP raw data, mean
T3 construct: purchased NIMH Psychoactive Drug Screening Program (PDSP)
T3 sequence (P21917 1-419): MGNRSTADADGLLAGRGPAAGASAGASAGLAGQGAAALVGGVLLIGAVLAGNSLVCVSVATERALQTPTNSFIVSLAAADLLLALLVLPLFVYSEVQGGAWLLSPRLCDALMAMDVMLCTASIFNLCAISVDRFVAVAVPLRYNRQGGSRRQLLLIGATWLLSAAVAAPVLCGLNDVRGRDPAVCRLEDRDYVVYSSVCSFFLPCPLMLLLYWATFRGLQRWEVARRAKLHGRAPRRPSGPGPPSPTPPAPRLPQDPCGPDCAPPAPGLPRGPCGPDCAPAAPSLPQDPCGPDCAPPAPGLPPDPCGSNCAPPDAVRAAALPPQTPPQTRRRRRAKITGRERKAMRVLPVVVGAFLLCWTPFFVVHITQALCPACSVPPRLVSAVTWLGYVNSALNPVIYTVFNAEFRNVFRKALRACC
Method: as §1, §2, §3

[4] = target: T4, H2 (Homo sapiens, UniProt P25021); experiment: PDSP primary binding H2; conditions: primary binding, 10,000 nM; last figure of the line = mean of the 4 before it; read-out: H2, PDSP raw data, mean
T4 construct: purchased NIMH Psychoactive Drug Screening Program (PDSP)
Method: as §1, §2, §3

[5] = target: T5, M1 (Homo sapiens, UniProt P11229); experiment: PDSP primary binding M1; conditions: primary binding, 10,000 nM; last figure of the line = mean of the 4 before it; read-out: M1, PDSP raw data, mean
T5 construct: purchased NIMH Psychoactive Drug Screening Program (PDSP)
T5 sequence (P11229 1-460): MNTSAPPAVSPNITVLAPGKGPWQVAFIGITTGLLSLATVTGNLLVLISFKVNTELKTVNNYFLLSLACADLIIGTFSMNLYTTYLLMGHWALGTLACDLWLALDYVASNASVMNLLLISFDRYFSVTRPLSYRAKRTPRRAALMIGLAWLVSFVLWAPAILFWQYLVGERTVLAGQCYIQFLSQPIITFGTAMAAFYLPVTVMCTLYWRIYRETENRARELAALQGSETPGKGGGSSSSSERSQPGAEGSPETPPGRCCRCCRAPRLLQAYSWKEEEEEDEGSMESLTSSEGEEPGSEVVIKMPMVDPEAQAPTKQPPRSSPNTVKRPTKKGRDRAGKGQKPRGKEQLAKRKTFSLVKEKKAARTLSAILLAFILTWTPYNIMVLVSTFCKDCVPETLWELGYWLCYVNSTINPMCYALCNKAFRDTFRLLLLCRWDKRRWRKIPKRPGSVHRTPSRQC
Method: as §1, §2, §3

[6] = target: T6, NET (Homo sapiens, UniProt P23975); experiment: PDSP primary binding NET; conditions: primary binding, 10,000 nM; last figure of the line = mean of the 4 before it; read-out: NET, PDSP raw data, mean
T6 construct: purchased NIMH Psychoactive Drug Screening Program (PDSP)
Method: as §1, §2, §3

[7] = target: T7, Alpha2Beta2 (Rattus norvegicus, UniProt P12389+P12390); experiment: PDSP primary binding Alpha2Beta2; conditions: primary binding, 10,000 nM; last figure of the line = mean of the 4 before it; read-out: Alpha2Beta2, PDSP raw data, mean
T7 construct: purchased NIMH Psychoactive Drug Screening Program (PDSP)
Method: as §1, §2, §3

[8] = target: T8, Alpha2Beta4 (Rattus norvegicus, UniProt P12389+P12392); experiment: PDSP primary binding Alpha2Beta4; conditions: primary binding, 10,000 nM; last figure of the line = mean of the 4 before it; read-out: Alpha2Beta4, PDSP raw data, mean
T8 construct: purchased NIMH Psychoactive Drug Screening Program (PDSP)
Method: as §1, §2, §3

[9] = target: T9, Alpha3Beta2 (Rattus norvegicus, UniProt P04757+P12390); experiment: PDSP primary binding Alpha3Beta2; conditions: primary binding, 10,000 nM; last figure of the line = mean of the 4 before it; read-out: Alpha3Beta2, PDSP raw data, mean
T9 construct: purchased NIMH Psychoactive Drug Screening Program (PDSP)
Method: as §1, §2, §3

T6 sequence (P23975 whole entry): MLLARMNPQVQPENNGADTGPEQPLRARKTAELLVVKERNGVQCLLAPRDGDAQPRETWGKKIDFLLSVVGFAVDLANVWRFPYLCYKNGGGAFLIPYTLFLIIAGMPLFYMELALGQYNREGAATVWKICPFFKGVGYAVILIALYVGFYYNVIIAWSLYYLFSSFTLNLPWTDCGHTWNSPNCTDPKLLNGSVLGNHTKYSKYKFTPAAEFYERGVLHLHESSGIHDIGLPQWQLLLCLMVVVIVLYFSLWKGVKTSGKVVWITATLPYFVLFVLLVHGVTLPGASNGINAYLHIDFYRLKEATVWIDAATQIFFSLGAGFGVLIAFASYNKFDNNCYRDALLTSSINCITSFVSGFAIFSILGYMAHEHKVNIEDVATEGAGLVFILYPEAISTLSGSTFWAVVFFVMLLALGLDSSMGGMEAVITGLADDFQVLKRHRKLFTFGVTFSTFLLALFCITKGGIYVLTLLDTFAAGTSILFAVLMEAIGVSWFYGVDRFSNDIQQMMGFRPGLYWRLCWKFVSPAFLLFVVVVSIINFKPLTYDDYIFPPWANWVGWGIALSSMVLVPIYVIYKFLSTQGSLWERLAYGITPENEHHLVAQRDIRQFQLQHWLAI
T2 sequence (Q13639 whole entry): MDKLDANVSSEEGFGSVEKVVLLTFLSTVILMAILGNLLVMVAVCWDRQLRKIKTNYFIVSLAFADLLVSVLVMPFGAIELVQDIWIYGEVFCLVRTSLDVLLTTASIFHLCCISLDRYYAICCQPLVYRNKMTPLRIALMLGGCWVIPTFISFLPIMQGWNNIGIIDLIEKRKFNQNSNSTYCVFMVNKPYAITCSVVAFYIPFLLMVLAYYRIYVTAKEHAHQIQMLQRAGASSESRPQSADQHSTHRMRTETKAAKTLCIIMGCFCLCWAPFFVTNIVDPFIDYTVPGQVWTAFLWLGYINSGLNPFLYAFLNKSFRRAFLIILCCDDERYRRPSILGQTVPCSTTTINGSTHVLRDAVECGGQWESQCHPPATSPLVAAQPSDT
T9 sequence (P04757 26-499): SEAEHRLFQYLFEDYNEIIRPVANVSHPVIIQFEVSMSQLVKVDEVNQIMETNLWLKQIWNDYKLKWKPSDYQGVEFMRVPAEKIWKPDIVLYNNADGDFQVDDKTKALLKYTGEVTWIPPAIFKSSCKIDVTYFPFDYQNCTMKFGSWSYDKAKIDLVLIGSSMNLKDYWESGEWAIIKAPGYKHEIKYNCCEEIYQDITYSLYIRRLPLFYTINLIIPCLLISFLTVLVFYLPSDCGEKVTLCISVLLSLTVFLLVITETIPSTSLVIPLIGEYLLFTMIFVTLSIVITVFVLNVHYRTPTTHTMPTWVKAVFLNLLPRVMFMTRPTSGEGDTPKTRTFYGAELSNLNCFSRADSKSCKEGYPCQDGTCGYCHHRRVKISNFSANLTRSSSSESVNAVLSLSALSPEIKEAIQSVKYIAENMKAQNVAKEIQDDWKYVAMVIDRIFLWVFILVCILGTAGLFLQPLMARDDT
T9 sequence (P12390 25-500): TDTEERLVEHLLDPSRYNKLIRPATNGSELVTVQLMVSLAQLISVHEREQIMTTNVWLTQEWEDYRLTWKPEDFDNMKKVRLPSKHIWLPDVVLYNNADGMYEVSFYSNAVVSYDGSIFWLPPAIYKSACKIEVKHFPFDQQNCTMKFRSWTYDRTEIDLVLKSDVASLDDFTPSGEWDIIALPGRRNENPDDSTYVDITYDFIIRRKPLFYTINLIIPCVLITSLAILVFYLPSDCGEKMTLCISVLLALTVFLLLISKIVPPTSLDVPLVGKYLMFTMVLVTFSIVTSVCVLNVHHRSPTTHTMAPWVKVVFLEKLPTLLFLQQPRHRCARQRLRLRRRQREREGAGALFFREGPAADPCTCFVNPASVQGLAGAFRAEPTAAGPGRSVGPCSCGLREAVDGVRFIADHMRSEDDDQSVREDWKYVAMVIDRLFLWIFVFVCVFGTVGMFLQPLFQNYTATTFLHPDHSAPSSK
T8 sequence (P12389 28-511): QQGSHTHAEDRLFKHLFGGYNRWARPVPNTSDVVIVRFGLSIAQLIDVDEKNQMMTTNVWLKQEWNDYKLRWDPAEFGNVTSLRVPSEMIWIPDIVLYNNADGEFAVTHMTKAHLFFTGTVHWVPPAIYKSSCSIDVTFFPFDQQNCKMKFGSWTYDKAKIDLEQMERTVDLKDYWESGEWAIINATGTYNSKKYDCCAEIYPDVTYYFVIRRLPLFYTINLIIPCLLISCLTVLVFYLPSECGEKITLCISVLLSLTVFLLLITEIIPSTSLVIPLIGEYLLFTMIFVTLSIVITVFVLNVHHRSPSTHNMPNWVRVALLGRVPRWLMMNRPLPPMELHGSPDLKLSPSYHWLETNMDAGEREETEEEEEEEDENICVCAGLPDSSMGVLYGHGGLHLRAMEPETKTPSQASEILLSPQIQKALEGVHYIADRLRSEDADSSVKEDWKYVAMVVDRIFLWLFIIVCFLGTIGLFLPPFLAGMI
T8 sequence (P12392 21-495): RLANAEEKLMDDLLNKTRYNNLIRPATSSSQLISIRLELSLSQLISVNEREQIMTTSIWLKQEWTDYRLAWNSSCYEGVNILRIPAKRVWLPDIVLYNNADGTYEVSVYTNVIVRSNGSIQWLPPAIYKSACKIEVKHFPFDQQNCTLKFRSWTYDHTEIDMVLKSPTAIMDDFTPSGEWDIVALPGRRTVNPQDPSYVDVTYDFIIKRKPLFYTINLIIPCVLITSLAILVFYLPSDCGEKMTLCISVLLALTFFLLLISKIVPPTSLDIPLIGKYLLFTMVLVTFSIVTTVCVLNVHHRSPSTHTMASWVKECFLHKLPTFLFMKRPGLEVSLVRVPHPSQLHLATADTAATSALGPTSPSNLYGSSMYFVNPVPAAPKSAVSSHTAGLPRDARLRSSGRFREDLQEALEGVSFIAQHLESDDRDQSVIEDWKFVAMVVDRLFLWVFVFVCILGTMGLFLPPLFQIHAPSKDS
T7 sequence (P12389 28-511): as the sequence (P12389 28-511) above
T7 sequence (P12390 25-500): as the sequence (P12390 25-500) above
T4 sequence (P25021 whole entry): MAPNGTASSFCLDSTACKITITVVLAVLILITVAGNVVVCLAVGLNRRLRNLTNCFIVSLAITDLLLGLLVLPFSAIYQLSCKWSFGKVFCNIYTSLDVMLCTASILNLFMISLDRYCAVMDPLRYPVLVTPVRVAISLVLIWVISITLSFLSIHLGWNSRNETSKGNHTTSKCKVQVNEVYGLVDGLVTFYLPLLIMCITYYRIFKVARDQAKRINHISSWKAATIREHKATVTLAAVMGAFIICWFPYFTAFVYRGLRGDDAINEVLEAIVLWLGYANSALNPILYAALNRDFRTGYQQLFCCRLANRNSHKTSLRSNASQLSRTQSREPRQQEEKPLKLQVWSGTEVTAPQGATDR

## C[C@H]1N=C(c2ccccc2F)c2cc(-c3ccccc3)ccc2-n2cnc(C(=O)N(C)C)c21 [Compound 5, (R)-6-(2′-Fluorophenyl)-N,N,4-trimethyl-8-phenyl-4H-benzo[f]imidazo[1,5-a][1,4]diazepine-3-carboxamide]
[1]
  inhibition at 10 µM: -0.89%
[2]
  inhibition at 10 µM: -14.4%
[3]
  inhibition at 10 µM: -4.45%
[4]
  inhibition at 10 µM: -1.42%
[5]
  inhibition at 10 µM: -1.6%
[6]
  inhibition at 10 µM: -6%
[7]
  inhibition at 10 µM: -5.95%
[8]
  inhibition at 10 µM: 4.82%
[9]
  inhibition at 10 µM: 2.14%

## C#Cc1ccc2c(c1)C(c1ccccc1Cl)=N[C@H](C)c1c(C(=O)NC)ncn1-2 [Compound 21, (R)-6-(2′-Chlorophenyl)-8-ethynyl-N,4-dimethyl-4H-benzo[f]imidazo[1,5-a][1,4]diazepine-3-carboxamide]
[1]
  inhibition at 10 µM: 2.85%
[2]
  inhibition at 10 µM: 4%
[3]
  inhibition at 10 µM: 2.12%
[4]
  inhibition at 10 µM: -2.07%
[5]
  inhibition at 10 µM: -8.29%
[6]
  inhibition at 10 µM: -2.45%
[7]
  inhibition at 10 µM: 3.88%
[8]
  inhibition at 10 µM: 7.67%
[9]
  inhibition at 10 µM: 3.21%

## C#Cc1ccc2c(c1)C(c1ccccn1)=N[C@@H](C)c1c(C(=O)NC)ncn1-2 [Compound 23, (S)-8-Ethynyl-N,4-dimethyl-6-(pyridin-2′-yl)-4H-benzo[f]imidazo[1,5-a][1,4]diazepine-3-carboxamide]
[1]
  inhibition at 10 µM: -7.15%
[2]
  inhibition at 10 µM: -1.06%
[3]
  inhibition at 10 µM: 3.79%
[4]
  inhibition at 10 µM: -23.3%
[5]
  inhibition at 10 µM: -12%
[6]
  inhibition at 10 µM: 2.62%
[7]
  inhibition at 10 µM: -3.67%
[8]
  inhibition at 10 µM: 4.5%
[9]
  inhibition at 10 µM: 7.13%

## C#Cc1ccc2c(c1)C(c1ccccc1Cl)=N[C@H](C)c1c(C(=O)N(C)CC)ncn1-2 [Compound 29]
[1]
  inhibition at 10 µM: -4.07%
[2]
  inhibition at 10 µM: -6.11%
[3]
  inhibition at 10 µM: 1.36%
[4]
  inhibition at 10 µM: -0.28%
[5]
  inhibition at 10 µM: 4.95%
[6]
  inhibition at 10 µM: -2.63%
[7]
  inhibition at 10 µM: -2.89%
[8]
  inhibition at 10 µM: 3.06%
[9]
  inhibition at 10 µM: 3.52%

## C#Cc1ccc2c(c1)C(c1ccccn1)=N[C@@H](C)c1c(C(=O)N(C)C)ncn1-2 [Compound 31, (S)-8-Ethynyl-N,N,4-trimethyl-6-(pyridin-2′-yl)-4H-benzo[f]imidazo[1,5-a][1,4]diazepine-3-carboxamide]
[1]
  inhibition at 10 µM: -3.58%
[2]
  inhibition at 10 µM: -0.81%
[3]
  inhibition at 10 µM: -0.38%
[4]
  inhibition at 10 µM: -12.1%
[5]
  inhibition at 10 µM: -20%
[6]
  inhibition at 10 µM: 10.2%
[7]
  inhibition at 10 µM: -2.25%
[8]
  inhibition at 10 µM: 6.58%
[9]
  inhibition at 10 µM: 3.57%

## C#Cc1ccc2c(c1)C(c1ccccc1F)=N[C@H](C)c1c(C(=S)N(C)C)ncn1-2 [Compound 33, (R)-8-Ethynyl-6-(2′-fluorophenyl)-N,N,4-trimethyl-4H-benzo[f]imidazo[1,5-a][1,4]diazepine-3-carbothioamide]
[1]
  inhibition at 10 µM: -0.89%
[2]
  inhibition at 10 µM: -14.4%
[3]
  inhibition at 10 µM: -4.45%
[4]
  inhibition at 10 µM: -1.42%
[5]
  inhibition at 10 µM: -1.6%
[6]
  inhibition at 10 µM: -6%
[7]
  inhibition at 10 µM: -5.95%
[8]
  inhibition at 10 µM: 4.82%
[9]
  inhibition at 10 µM: 2.14%

## CCc1noc(-c2ncn3c2[C@@H](C)N=C(c2ccccc2F)c2cc(-c4ccccc4)ccc2-3)n1 [Compound 35, (R)-3-Ethyl-5-(6-(2′-fluorophenyl)-4-methyl-8-phenyl-4H-benzo[f]imidazo[1,5-a][1,4]diazepin-3-yl)-1,2,4-oxadiazole]
[1]
  inhibition at 10 µM: -9.33%
[2]
  inhibition at 10 µM: -0.48%
[3]
  inhibition at 10 µM: 6.05%
[4]
  inhibition at 10 µM: -10.1%
[5]
  inhibition at 10 µM: -1.63%
[6]
  inhibition at 10 µM: 10.2%
[7]
  inhibition at 10 µM: 4.18%
[8]
  inhibition at 10 µM: 10.7%
[9]
  inhibition at 10 µM: 5.43%

## CCc1noc(-c2ncn3c2[C@@H](C)N=C(c2ccccc2F)c2cc(Cl)ccc2-3)n1 [Compound 36, (R)-5-(8-Chloro-6-(2′-fluorophenyl)-4-methyl-4H-benzo[f]imidazo[1,5-a][1,4]diazepin-3-yl)-3-ethyl-1,2,4-oxadiazole]
[1]
  inhibition at 10 µM: -2%
[2]
  inhibition at 10 µM: -12.3%
[3]
  inhibition at 10 µM: -4.5%
[4]
  inhibition at 10 µM: 5.61%
[5]
  inhibition at 10 µM: -0.27%
[6]
  inhibition at 10 µM: -2.36%
[7]
  inhibition at 10 µM: -6.7%
[8]
  inhibition at 10 µM: 10.9%
[9]
  inhibition at 10 µM: 6.01%

## CC(C)c1noc(-c2ncn3c2[C@@H](C)N=C(c2ccccc2F)c2cc(Cl)ccc2-3)n1 [Compound 37, (R)-5-(8-Chloro-6-(2′-fluorophenyl)-4-methyl-4H-benzo[f]imidazo[1,5-a][1,4]diazepin-3-yl)-3-isopropyl-1,2,4-oxadiazole]
[1]
  inhibition at 10 µM: 13.5%
[2]
  inhibition at 10 µM: 48%
[3]
  inhibition at 10 µM: -10.1%
[4]
  inhibition at 10 µM: 1.66%
[5]
  inhibition at 10 µM: -0.48%
[6]
  inhibition at 10 µM: 9.04%
[7]
  inhibition at 10 µM: 3.29%
[8]
  inhibition at 10 µM: -5.48%
[9]
  inhibition at 10 µM: 5.77%

## C[C@H]1N=C(c2ccccc2F)c2cc(Cl)ccc2-n2cnc(-c3nc(C4CC4)no3)c21 [Compound 38, (R)-5-(8-Chloro-6-(2′-fluorophenyl)-4-methyl-4H-benzo[f]imidazo[1,5-a][1,4]diazepin-3-yl)-3-cyclopropyl-1,2,4-oxadiazole]
[1]
  inhibition at 10 µM: 13.5%
[2]
  inhibition at 10 µM: 38.7%
[3]
  inhibition at 10 µM: -3.44%
[4]
  inhibition at 10 µM: 6.81%
[5]
  inhibition at 10 µM: -0.23%
[6]
  inhibition at 10 µM: -0.22%
[7]
  inhibition at 10 µM: 1.44%
[8]
  inhibition at 10 µM: 0.54%
[9]
  inhibition at 10 µM: 6.96%
